From the NIST ThermoML archive (doi:10.1016/j.tca.2010.01.023)
± gives the expanded uncertainty stated by the source.

Conditions: Crystal; DTA

- Normal melting temperature: 65.0 ± 1 °C
Structure (SMILES): CCCCn1cc[n+](C)c1.[Cl-] [1-butyl-3-methylimidazolium chloride]
